In ChEMBL document CHEMBL5252509, “In depth analysis of kinase cross screening data to identify chemical starting points for inhibition of the Nek family of kinases” (Medchemcomm, 2018) one finds inhibition data, which are given here for five compounds.

The structures appear in SMILES notation.

Assay [1] addresses T1, Serine/threonine-protein kinase Nek10 (Homo sapiens) (UniProt Q6ZWH5).
T1 sequence (whole entry): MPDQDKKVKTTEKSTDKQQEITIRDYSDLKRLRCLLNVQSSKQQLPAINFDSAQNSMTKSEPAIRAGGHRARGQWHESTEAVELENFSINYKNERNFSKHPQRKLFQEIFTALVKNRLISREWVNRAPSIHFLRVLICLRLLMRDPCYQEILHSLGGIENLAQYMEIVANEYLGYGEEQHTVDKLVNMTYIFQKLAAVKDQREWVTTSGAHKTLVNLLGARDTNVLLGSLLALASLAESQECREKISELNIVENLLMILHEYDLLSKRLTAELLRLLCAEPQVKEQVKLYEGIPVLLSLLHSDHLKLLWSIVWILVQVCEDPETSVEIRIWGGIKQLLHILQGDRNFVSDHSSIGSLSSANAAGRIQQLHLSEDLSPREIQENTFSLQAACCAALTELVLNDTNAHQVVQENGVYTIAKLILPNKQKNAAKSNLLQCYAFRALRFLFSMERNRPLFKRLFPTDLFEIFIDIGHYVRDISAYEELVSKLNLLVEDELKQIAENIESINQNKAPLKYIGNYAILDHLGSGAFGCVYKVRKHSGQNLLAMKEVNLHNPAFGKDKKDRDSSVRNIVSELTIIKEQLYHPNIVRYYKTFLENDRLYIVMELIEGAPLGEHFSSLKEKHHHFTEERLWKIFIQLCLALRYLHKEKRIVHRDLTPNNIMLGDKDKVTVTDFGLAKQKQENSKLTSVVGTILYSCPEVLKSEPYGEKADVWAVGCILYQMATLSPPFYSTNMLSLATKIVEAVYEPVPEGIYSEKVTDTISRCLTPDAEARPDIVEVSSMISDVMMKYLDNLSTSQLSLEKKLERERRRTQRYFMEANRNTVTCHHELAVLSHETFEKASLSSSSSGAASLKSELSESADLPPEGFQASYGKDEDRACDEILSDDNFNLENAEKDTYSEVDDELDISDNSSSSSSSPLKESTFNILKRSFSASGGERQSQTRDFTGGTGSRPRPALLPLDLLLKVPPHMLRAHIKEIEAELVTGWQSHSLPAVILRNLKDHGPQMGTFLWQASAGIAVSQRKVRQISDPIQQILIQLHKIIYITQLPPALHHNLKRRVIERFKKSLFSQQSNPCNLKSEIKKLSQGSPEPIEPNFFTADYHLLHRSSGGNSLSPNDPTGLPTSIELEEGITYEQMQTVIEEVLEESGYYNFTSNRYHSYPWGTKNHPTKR
Description: Inhibition of NEK10 (unknown origin) at 1 uM relative to control.

Assay [2] deals with Serine/threonine-protein kinase Nek7 (Homo sapiens) (UniProt Q8TDX7). Description: Inhibition of NEK7 (unknown origin) at 1 uM relative to control.
Sequence of Serine/threonine-protein kinase Nek7 (Homo sapiens) (Q8TDX7 whole entry, looked up): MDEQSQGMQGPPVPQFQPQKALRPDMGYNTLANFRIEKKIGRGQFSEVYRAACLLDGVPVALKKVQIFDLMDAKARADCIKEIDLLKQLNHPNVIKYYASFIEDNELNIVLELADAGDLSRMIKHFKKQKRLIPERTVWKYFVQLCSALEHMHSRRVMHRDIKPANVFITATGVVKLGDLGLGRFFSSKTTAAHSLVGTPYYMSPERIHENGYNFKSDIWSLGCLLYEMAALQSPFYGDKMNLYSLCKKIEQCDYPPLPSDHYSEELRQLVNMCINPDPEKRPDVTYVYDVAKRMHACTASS
The target in assay [3] is T2, Serine/threonine-protein kinase Nek5 (Homo sapiens) (UniProt Q6P3R8).
T2 sequence (whole entry): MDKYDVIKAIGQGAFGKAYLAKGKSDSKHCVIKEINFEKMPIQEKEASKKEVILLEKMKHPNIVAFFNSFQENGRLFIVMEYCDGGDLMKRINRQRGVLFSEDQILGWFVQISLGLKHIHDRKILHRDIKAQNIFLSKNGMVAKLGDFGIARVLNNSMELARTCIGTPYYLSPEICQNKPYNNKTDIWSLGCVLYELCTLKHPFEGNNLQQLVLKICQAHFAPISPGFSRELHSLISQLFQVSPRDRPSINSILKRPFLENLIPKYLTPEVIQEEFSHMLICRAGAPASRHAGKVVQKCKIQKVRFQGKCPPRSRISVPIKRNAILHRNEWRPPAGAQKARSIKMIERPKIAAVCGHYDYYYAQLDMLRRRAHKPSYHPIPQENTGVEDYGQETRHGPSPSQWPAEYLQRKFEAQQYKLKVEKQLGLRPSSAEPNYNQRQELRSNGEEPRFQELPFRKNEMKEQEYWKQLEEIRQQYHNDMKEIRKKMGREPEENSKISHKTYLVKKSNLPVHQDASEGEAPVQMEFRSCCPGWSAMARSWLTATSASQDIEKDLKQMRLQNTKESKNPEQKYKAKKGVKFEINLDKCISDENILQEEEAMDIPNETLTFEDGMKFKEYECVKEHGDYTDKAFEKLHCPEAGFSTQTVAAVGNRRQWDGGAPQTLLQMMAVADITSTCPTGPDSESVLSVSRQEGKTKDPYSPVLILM
As to the kind of experiment: Inhibition of NEK5 (unknown origin) at 1 uM relative to control.

The target of assay [4] is T3, Serine/threonine-protein kinase Nek11 (Homo sapiens) (UniProt Q8NG66).
T3 sequence (whole entry): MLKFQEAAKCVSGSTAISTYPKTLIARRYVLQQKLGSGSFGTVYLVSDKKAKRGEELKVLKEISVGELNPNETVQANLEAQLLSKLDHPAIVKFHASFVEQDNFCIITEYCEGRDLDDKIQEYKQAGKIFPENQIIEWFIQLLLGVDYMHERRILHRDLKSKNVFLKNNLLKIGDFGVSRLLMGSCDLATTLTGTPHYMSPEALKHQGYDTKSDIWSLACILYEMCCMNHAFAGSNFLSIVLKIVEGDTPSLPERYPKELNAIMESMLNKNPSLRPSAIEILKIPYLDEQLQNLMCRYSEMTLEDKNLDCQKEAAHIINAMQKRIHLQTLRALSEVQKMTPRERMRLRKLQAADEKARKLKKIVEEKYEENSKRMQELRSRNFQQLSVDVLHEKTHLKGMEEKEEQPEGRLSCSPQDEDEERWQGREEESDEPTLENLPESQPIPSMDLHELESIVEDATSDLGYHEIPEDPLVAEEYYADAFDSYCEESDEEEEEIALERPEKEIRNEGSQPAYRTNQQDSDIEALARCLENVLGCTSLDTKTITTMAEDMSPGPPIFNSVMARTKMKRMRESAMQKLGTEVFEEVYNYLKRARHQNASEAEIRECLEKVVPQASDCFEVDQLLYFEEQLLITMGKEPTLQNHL
As to the kind of experiment: Inhibition of NEK11 (unknown origin) at 1 uM relative to control.

As a reminder, the inhibition is the change of the read-out against control, counted positive when it falls. As for `Cn1cc(-c2ccc3c(c2)CCN3C(=O)Cc2cc(F)cc(F)c2F)c2c(N)ncnc21`, the inhibition was 10% in assay [1], 0% in assay [2], 8% in assay [3] and 38% in assay [4].

Consider `CC(C)c1nc(-c2cccc(NS(=O)(=O)c3ccccc3)c2)c(-c2ccnc(Nc3ccc4c(c3)CN(C)CC4)n2)s1`, for which the inhibition in assay [1] was found to be 100%; in assay [2], 100%; in assay [3], 100%; in assay [4] it was 2.3%.

In the case of `Cc1ccc(CC(=O)N2CCc3cc(-c4cn(C)c5ncnc(N)c45)ccc32)cc1`, the inhibition in assay [1] was found to be 0%; in assay [2] it was 0%; in assay [3] it was 45%; in assay [4], 59%.

Regarding `COc1ccc(C2=C(Nc3cccc(C(=O)O)c3)C(=O)NC2=O)cc1`, the inhibition came out at 2% in assay [1], 28% in assay [2], 0% in assay [3] and 30% in assay [4].

As for `COc1cccc(C2=C(Nc3cccc(O)c3)C(=O)NC2=O)c1`, the inhibition in assay [1] stood at 67%; in assay [2] it was 7%; in assay [3], 2%; in assay [4] it was 0%.
